The test system of one assay is MCF7 (breast). In words: In vitro cytotoxic activity assay (MTT), MCF7. Format: cell-based. The settings on record: Homo sapiens; MCF7 (breast) cells, exposed for 96 hours; read-out: Cytotoxicity activity IC50 (50% inhibition of cell proliferation). The protocol:
(§1) Compounds 1-16 were screened for their in vitro cytotoxic activity utilizing a 3-(4,5-dimethyl-thiazol-2-yl)-2,5-diphenyltetrazolium bromide (MTT) assay against selected cancer human cell lines consisting of PC3 (prostate), HCT116 (colon), A375 (melanoma), H1299 (lung), MIAPaCa-2 (pancreas), HL60 (leukemia), MCF7 (breast), MDA-MB-231 (breast) (T. Mosmann, J. Immunol. Meth., 1983, 65, 55-63). The cells were cultured at 37° C. in RMPI1640 medium supplemented with 10% fetal bovine serum, 50 IU/mL penicillin, and 50 μg/mL streptomycin in a 5% CO2 incubator. All cells were sub-cultured 3 times/week by trypsinisation. Viable cells were seeded and allowed to adhere for 12 h before a test drug was added in 96-well plates at an initial density of 1.0×10^5 cells/mL. Tumor cell lines were separately exposed to various concentrations of the tested compounds followed by incubation at a temperature of 37° C. during 96 hours inside a medium of fresh RMPI 1640. Cells were subsequently incubated at 37° C. using MTT at 0.5 mg/mL during 4 hours. After removal of supernatant, formazan crystals were dissolved in isopropanol and the optical density was measured at 570 nm. CX-4945 was used as a positive control.

A further assay relates to H1299 (lung). In words: In vitro cytotoxic activity assay (MTT), H1299. The format is cell-based. The conditions noted are these: Homo sapiens, NCI-H1299; H1299 (lung) cells, exposed for 96 hours; read-out: Cytotoxicity activity IC50 (50% inhibition of cell proliferation). The protocol:
as §1

A further assay relates to HL60 (leukemia). The assay can be described thus: In vitro cytotoxic activity assay (MTT), HL60. The conditions noted are these: Homo sapiens, HL-60; HL60 (leukemia) cells, exposed for 96 hours; read-out: Cytotoxicity activity IC50 (50% inhibition of cell proliferation). The format is cell-based. The protocol:
as §1

For another assay, the system named is HCT116 (colon). The assay can be described thus: In vitro cytotoxic activity assay (MTT), HCT116. The format is cell-based. The settings on record: Homo sapiens, HCT-116; HCT116 (colon) cells, exposed for 96 hours; read-out: Cytotoxicity activity IC50 (50% inhibition of cell proliferation). The protocol:
as §1

The subject of another assay is MIAPaCa-2 (pancreas). In words: In vitro cytotoxic activity assay (MTT), MIAPaCa-2. The conditions noted are these: Homo sapiens, MIA PaCa-2; MIAPaCa-2 (pancreas) cells, exposed for 96 hours; read-out: Cytotoxicity activity IC50 (50% inhibition of cell proliferation). The format is cell-based. The protocol:
as §1

Another assay has as its system PC3 (prostate). The assay can be described thus: In vitro cytotoxic activity assay (MTT), PC3. Format: cell-based. The conditions noted are these: Homo sapiens, Prostate cell; PC3 (prostate) cells, exposed for 96 hours; read-out: Cytotoxicity activity IC50 (50% inhibition of cell proliferation). The protocol:
as §1

Another assay relates to MDA-MB-231 (breast). The assay can be described thus: In vitro cytotoxic activity assay (MTT), MDA-MB-231. The settings on record: Homo sapiens; MDA-MB-231 (breast) cells, exposed for 96 hours; read-out: Cytotoxicity activity IC50 (50% inhibition of cell proliferation). The format is cell-based. The protocol: as §1
In the next assay the test system is A375 (melanoma). In words: In vitro cytotoxic activity assay (MTT), A375. Format: cell-based. The settings on record: Homo sapiens, A-375; A375 (melanoma) cells, exposed for 96 hours; read-out: Cytotoxicity activity IC50 (50% inhibition of cell proliferation). The protocol:
as §1

The target of assay [1] is T1, recombinant human CK2 (RRββ-holoenzyme) (Homo sapiens, UniProt P68400).
T1 construct: purchased Millipore
In words: CK2 Kinase Assay (radiometric, [γ-33P] ATP). Format: biochemical. The settings on record: final ATP concentration 15 μM, 10 min at 30° C., eight concentrations; read-out: protein kinase CK2 activity IC50. The protocol: CK2 Kinase Assay was conducted using the protocol as described in Pierre F. et al; J. Med. Chem. 2011, 54, 635-654. The tested compounds in aqueous solution were added at a volume of 10 μL to a reaction mixture comprising 10 μL of assay dilution buffer (ADB; 20 mM MOPS, pH 7.2, 25 mM β-glycerol phosphate, 5 mM EGTA, 1 mM sodium orthovanadate, and 1 mM dithiothreitol), 10 μL of substrate peptide (RRRDDDSDDD, dissolved in ADB at a concentration of 1 mM), 10 μL of recombinant human CK2 (RRββ-holoenzyme, 25 ng dissolved in ADB; Millipore). Reactions were initiated by the addition of 10 μL of ATP solution (90% 75 mM MgCl2, 75 μM ATP (final ATP concentration:15 μM) dissolved in ADB; 10% [γ-33P] ATP (stock 1 mCi/100 μL; 3000 Ci/mmol (Perkin-Elmer) and maintained for 10 min at 30° C. The reactions were quenched with 100 μL of 0.75% phosphoric acid and then transferred to and filtered through a phosphor cellulose filter plate (Millipore). After washing each well five times with 0.75% phosphoric acid, the plate was dried under vacuum for 5 min and, following the addition of 15 μL of scintillation fluid to each well, the residual radioactivity was measured using a Wallac luminescence counter. The IC50 values were derived from eight concentrations of test inhibitors.

T1 sequence (P68400 whole entry): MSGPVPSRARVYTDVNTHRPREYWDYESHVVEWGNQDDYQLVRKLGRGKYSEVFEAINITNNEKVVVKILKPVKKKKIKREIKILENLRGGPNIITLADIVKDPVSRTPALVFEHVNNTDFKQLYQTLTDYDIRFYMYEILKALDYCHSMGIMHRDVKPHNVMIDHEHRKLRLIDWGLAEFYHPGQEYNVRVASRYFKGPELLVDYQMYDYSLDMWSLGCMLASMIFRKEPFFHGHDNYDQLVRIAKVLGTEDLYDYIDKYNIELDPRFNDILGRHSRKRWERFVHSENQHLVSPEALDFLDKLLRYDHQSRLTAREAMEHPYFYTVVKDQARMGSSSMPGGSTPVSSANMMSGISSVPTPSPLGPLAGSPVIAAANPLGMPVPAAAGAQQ
T1 sequence (P67870 whole entry partner): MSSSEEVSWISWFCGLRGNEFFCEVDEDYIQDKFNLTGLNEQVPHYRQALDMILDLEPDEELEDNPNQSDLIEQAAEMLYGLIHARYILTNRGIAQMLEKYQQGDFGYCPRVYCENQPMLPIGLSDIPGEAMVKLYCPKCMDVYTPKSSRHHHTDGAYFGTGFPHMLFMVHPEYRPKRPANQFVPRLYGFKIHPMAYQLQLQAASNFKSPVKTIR

Turning to `O=C1Nc2c(c(Nc3cccc(Cl)c3)nc3cc(C(=O)O)ccc23)C1=O` [Compound (1), 4-((3-chlorophenyl)amino)-2,3-dioxo-2,3-dihydro-1H-pyrrolo[3,2-c]quinoline-7-carboxylic acid], the IC50 was found to be 5200 nM with MCF7 (breast); 1900 nM in the assay on H1299 (lung); 3600 nM with HL60 (leukemia); 1600 nM in the assay on HCT116 (colon); 900 nM in the assay on MIAPaCa-2 (pancreas); 1300 nM with PC3 (prostate). For the same compound, the IC50 in the assay on MDA-MB-231 (breast) came to 4100 nM; with A375 (melanoma), 3200 nM; in assay [1], 22 nM.

The values above are taken from patent publication US11981675B1, “Pyrrolo[3,2-C]quinoline-2,3-dione compounds as CK2 inhibitors” (KING FAISAL UNIVERSITY, priority 2023, dated 2024).
